This experiment has as its target T1, human muscarinic 1 receptor (M1R) (Homo sapiens, UniProt P11229).
T1 construct: The M1R constructs used in this assay consisted of the full-length human muscarinic 1 receptor; FLAG (N); expressed in transfected cells; membrane extracts
T1 sequence (P11229 1-460): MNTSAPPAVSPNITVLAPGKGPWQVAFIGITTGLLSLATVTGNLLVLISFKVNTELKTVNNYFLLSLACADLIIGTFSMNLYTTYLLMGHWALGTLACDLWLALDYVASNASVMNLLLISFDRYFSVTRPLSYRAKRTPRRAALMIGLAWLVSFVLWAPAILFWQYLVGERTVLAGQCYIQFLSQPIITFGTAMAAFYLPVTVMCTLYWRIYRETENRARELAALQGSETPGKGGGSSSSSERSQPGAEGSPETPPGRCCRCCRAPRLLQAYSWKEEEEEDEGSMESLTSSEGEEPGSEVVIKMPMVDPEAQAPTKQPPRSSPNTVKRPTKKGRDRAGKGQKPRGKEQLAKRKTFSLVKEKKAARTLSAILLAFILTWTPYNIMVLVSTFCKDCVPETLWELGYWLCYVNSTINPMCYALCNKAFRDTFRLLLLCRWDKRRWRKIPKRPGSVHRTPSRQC
In words: Radioligand binding assay (RLA) on M1R membrane extracts. To be noted: IC50 of agonist without mimetic divided by IC50 with mimetic; averaged value. The text has this: A radioligand displacement assay can quantify the pharmacological stabilization of the GPCR in the active conformation by comparing the affinities of an agonist for the basal versus the active GPCR conformer. In particular, stabilization of a GPCR in an active conformational state or specific binding to a GPCR in an active conformational state by a G protein peptidomimetic or a Gq/11 protein peptidomimetic as disclosed herein can be determined based on the shift in IC50 value of a ligand, in particular an agonist more particularly an orthosteric agonist, which binds to the GPCR when tested in the presence and the absence of the G protein peptidomimetic or the Gq/11 protein peptidomimetic. During the assay, the binding affinity of an orthosteric agonist for the receptor in presence and absence of the (allosteric) peptidomimetic is determined. Therefore, the GPCR, e.g. embedded in membrane extracts, is incubated with a radioligand and different concentrations of the agonist. By increasing the agonist concentration, radioligand will be displaced by the agonist. A leftward shift of the curve in the presence of the peptidomimetic is indicative of a peptidomimetic capable of stabilizing a GPCR in an active conformational state. A “shift” in IC50 value or IC50 shift is defined herein as the IC50 ratio of a ligand, in particular an agonist, more particularly an orthosteric agonist, which binds to the GPCR in the absence of a G protein peptidomimetic or a Gq/11 protein peptidomimetic relative to the presence of the G protein peptidomimetic or the Gq/11 protein peptidomimetic, or the IC50 value of a ligand, in particular an agonist, for binding to the GPCR in the absence of a G protein peptidomimetic or a Gq/11 protein peptidomimetic divided by the IC50 value of the ligand in the presence of the G protein peptidomimetic or the Gq/11 protein peptidomimetic in the same preparation, wherein said IC50 values are determined in a radioligand binding assay or radioligand displacement assay (RLA) as known to the skilled person. For example, a human muscarinic acetylcholine 1 receptor (M1R) radioligand binding assay using ^3H—N-methyl scopolamine (^3H-NMS) as the radioligand and increasing concentrations of acetylcholine chloride (agonist) as cold competitor may be used.
The membrane extracts were prepared from cells that overexpressed muscarinic acetylcholine 1 receptor (M1R), by resuspending the cell pellet in a buffer (1 ml buffer/2×1E7 cells) containing 20 mM Hepes (pH 7.4), 100 mM NaCl, Leupeptin and phenylmethylsulfonyl fluoride (PMSF). Afterwards the cells were vortexed and homogenized in ice using a small volume ULTRA-TURRAX® (6×10 sec). The cells were then centrifuged for 15 min at 16000 rcf, in a pre-cooled centrifuge (4° C.) and resuspended in the previous buffer containing 10% sucrose. Finally, the membranes were again homogenized in ice with the small volume ULTRA-TURRAX® (3×10 sec). The protein concentration in the membrane extracts was determined using a Pierce™ bicinchoninic acidv (BCA) Protein Assay Kit and the protein concentration was extrapolated from the Bovine Serum Albumine standard curve.
The M1R constructs used in this assay consisted of the full-length human muscarinic 1 receptor with a FLAG tag at the N-terminus. A buffer containing 20 mM Hepes pH 7.4, 100 mM NaCl, and 0.1% BSA was used for the ligands, membrane extracts and peptides (+1% dimethylsulfoxide (DMSO)). The competition assay was performed with [3H]—N-methyl scopolamine ([3H]-NMS) as radiolabeled antagonist, at a final concentration of 0.6 nM. A ten-fold dilution series of the agonist, acetylcholine chloride, was prepared to obtain a dose response curve. After incubation, the samples were harvested into filter plates (GF/C) and washed with ice cold washing buffer (20 mM Hepes pH 7.4) using the 96-well harvester. […]

Non-standard residues stand in square brackets, D forms with d. Residues, ends and D or L forms follow the SMILES beside them. Cha = N[C@@H](CC1CCCCC1)C(=O)O

Consider `CC[C@H](C)[C@H](NC(=O)[C@@H](NC(=O)[C@H](CC(=O)O)NC(=O)[C@H](CCCCN)NC(=O)[C@@H](NC(=O)[C@H](C)NC(=O)[C@H](C)NC(=O)[C@H](Cc1ccccc1)NC(=O)[C@H](CCCCN)NC(=O)[C@H](CCCCN)NC(=O)[C@H](CCCCN)NC(C)=O)C(C)C)[C@@H](C)O)C(=O)N[C@@H](CC(C)C)C(=O)N[C@@H](CCC(N)=O)C(=O)N[C@@H](CC(C)C)C(=O)N[C@@H](CC(N)=O)C(=O)N[C@@H](CC(C)C)C(=O)N[C@@H](CCCCN)C(=O)N[C@@H](CCC(=O)O)C(=O)N[C@@H](Cc1ccc(O)cc1)C(=O)N[C@@H](CC(N)=O)C(=O)N[C@@H](CC1CCCCC1)C(=O)N[C@H](C(=O)O)C(C)C` [SBL-GQ-04] (Ac-KKKFAAVKDTILQLNLKEYN[Cha]V-OH), for which the Shift came to 4.

These data come from US20260242759A1, “GQ/11 Protein Peptidomimetics” (Vrije Universiteit Brussel, priority 2022, published 2026).
